The record followed here is patent publication US10870660B2, “Nitrogen-containing condensed ring compounds having dopamine D3 antagonistic effect” (Shionogi & Co., Ltd., priority 2016, dated 2020).

Structures are written as SMILES.

Experiment [1] addresses human recombinant dopamine D2 receptor (Homo sapiens (Human), UniProt P14416). The experiment in a line: Test of binding inhibition for the human dopamine D2 receptor ([3H]-Metylspiperone SPA binding). Conditions: [3H]-Metylspiperone 1.2 nM, Jump-In HEK cell membranes, read-out: hD2_Ki. The protocol: Cell membranes: Jump-In HEK cell membranes expressing human recombinant dopamine D2 receptor (2 μg/well)
Buffer solution: 50 mM Tris-HCl (35409-45, Nacalai Tesque) (pH 7.4) containing 120 mM NaCl (31320-05, Nacalai Tesque), 1 mM MgCl2.6H2O (20909-55, Nacalai Tesque), 5 mM KCl (28514-75, Nacalai Tesque) and 2 mM CaCl2 (067-31, Nacalai Chemical, Ltd)
Radioligand: (final concentration) 1.2 nM [^3H]-Metylspiperone ([^3H—N-methyl-]-Metylspiperone, NET-856, 83.8 Ci/mmol, PerkinElmer)
(§1) Non-specific ligand: (final concentration) 10 μM Butaclamol [(+)-Butaclamol Hydrochioride, D033, Sigma]
(§2) SPA beads: SPA beads [WGA PVT SPA Scintillatiion Beads, RPNQ0001 (500 mg), RPNQ0060 (2 g), PerkinElmer] (0.2 mg/well)
(§3) Incubation time and temperature: 120 min at 25° C.
(§4) Butaclamol or the compounds of the present invention were weighed and DMSO was added to make a 10 mM solution. This solution was diluted to each concentration.
[^3H]-Metylspiperone was weighed and the buffer solution was added to make a 3.6 nM solution.
(§5) SPA beads were weighed and stirred in water to make a 50 mg/mL solution. Using this solution, a mixed solution with the cell membranes was prepared.
225 nL of the solutions of the non-specific ligand or the compounds of the present invention at each concentration (in case of vehicle, final concentration 0.3% DMSO) were added in each well of a 384-well white/clear bottom microplate (3706, Corning). Jump-In HEK Cell membranes (final reaction amount: 2 μg protein/well), SPA beads (final reaction amount: 0.2 mg/well) and the buffer were mixed and the mixed solution was left still for more than or equal to 1 h at 4° C. Then, 50 μL of the mixture was added to each well of the plate. In addition, 25 μL of 3.6 nM [^3H]-Metylspiperone (final concentration: 1.2 nM) was added to each well. The plate was sealed by putting TopSeal-A 96/384 well (6050185, PerkinElmer) on the top of the plate, mixed using stirring deaerator (Welltornado, FK-62, Sakaki) and incubated for 120 min at 25° C. After incubation, the radioactivity of [^3H]-Metylspiperone which was binded to D2 receptor was determined by liquid scintillation counter (1450 Microbeta, PerkinElmer) in each well. Non-specific binding was calculated based on the radioactivity of [^3H]-Metylspiperone in the presence of 10 μM non-labeled Butaclamol. The total binding was calculated using the radioactivity of [^3H]-Metylspiperone in the absence of the compounds of the present invention (Vehicle). The Ki values were calculated from dose-response curves.
(§6) Binding activities of the compounds of the present invention were calculated from the following Binding Inhibition Rate (%): Inhibition Rate (%)=[1−(c−a)(b−a)]×100(%) • a: Average cpm of non-specific binding • b: Average cpm of total binding • c: Cpm in the presence of each test compound

In experiment [2] the target is human recombinant dopamine D3 receptor (Homo sapiens (Human), UniProt P35462). The experiment in a line: Test of binding inhibition for the human dopamine D3 receptor ([3H]-Metylspiperone SPA binding). The note with it: [3H]-Metylspiperone 2 nM, Jump-In HEK cell membranes, read-out: hD3_Ki. As to the method:
Cell membranes: Jump-In HEK cell membranes expressing human recombinant dopamine D3 receptor (4 μg/well)
as §1, §2, §3, §4
[^3H]-Metylspiperone was weighed and the buffer solution was added to make a 6 nM solution.
as §5
Jump-In HEK Cell membranes (final reaction amount: 4 μg/well), SPA beads (final reaction amount: 0.2 mg/well) and Tris-HCl buffer were mixed and the mixed solution was left still for more than 60 min at 4° C. Then, 50 μL of the mixture was added to each well of the plate. In addition, 25 μL of 6 nM [^3H]-Metylspiperone (final concentration: 2 nM) was added to each well. […] Non-specific binding was calculated based on the radioactivity of [^3H]-Metylspiperone in the presence of 10 μM non-labeled Butaclamol. The total binding was calculated based on the radioactivity of [^3H]-Metylspiperone in the absence of the compounds of the present invention (Vehicle). The Ki values were calculated from dose-response curves.
as §6

Chain of human recombinant dopamine D2 receptor (P14416 whole entry): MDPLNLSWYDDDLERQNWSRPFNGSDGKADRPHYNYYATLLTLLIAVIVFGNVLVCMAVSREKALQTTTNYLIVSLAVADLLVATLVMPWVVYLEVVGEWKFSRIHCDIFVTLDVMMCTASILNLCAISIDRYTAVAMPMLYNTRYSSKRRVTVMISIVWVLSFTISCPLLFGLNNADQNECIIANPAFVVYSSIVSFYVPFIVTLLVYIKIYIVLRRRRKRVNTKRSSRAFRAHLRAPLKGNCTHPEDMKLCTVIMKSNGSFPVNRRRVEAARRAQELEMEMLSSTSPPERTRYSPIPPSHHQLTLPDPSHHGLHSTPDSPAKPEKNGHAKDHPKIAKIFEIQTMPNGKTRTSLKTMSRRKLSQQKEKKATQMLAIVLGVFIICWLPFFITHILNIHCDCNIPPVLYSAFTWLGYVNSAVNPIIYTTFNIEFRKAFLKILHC
Chain of human recombinant dopamine D3 receptor (P35462 whole entry): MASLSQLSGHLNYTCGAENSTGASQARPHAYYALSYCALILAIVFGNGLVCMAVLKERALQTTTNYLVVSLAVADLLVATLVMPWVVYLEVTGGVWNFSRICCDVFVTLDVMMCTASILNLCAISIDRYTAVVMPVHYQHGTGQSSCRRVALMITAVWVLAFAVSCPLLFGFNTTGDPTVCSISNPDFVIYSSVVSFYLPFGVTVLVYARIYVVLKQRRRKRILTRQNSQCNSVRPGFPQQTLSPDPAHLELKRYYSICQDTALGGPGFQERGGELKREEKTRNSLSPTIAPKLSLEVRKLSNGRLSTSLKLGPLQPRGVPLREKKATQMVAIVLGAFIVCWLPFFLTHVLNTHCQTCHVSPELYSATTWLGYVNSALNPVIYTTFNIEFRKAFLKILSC

For the compound `Cn1c(C(=O)N[C@H]2CC[C@H](CCN3CCc4nc(OCC(F)(F)F)sc4CC3)CC2)cccc1=O` [III-128], the Ki came to 370 nM in experiment [1] and 0.12 nM in experiment [2].

`O=C(N[C@H]1C[C@@H]2[C@@H](CCN3CCc4sc(OCC(F)F)nc4C3)[C@@H]2C1)c1cccc2ncccc12` [Compound I-124]: the Ki stood at 860 nM in experiment [1] and 0.91 nM in experiment [2].

For `Cc1cnc(CC(=O)N[C@H]2CC[C@H](CCN3CCc4nc(OCC(F)(F)F)sc4CC3)OC2)o1` [III-220], the Ki in experiment [1] was 1100 nM; in experiment [2], 0.78 nM.

In the case of `CCN1Cc2c(C(=O)N[C@H]3CC[C@H](CCN4CCc5sc(CCC(F)(F)F)nc5C4)CC3)cccc2C1=O` [III-701], the Ki in experiment [1] was found to be 190 nM; in experiment [2], 0.15 nM.

On to `O=C(N[C@H]1CC[C@H](CCN2CCc3nc(OCC(F)F)ncc3C2)CC1)c1cccc2ncccc12` [Compound I-136], for which the Ki was more than 1800 nM in experiment [1] and 25 nM in experiment [2].

Take `Cc1ncc(CC(=O)N[C@H]2CC[C@H](CCN3CCc4nc(OCC(C)(F)F)sc4CC3)CC2)o1` [II-029]: the Ki in experiment [1] is 1300 nM; in experiment [2], 0.12 nM.

With `Cc1ncc(CC(=O)N[C@H]2CC[C@H](CCN3CCc4nc(OCC5CC5)sc4CC3)CC2)s1` [II-090], the Ki in experiment [1] is more than 1900 nM; in experiment [2] it was 0.64 nM.

In the case of `Cc1ncc(CC(=O)N[C@H]2CC[C@H](CCN3CCc4sc(OCC(F)(F)F)nc4C(C)C3)CC2)s1` (stereo partly drawn) [III-110], the figures for the Ki in experiment [1] and in experiment [2] were 610 nM and 0.49 nM, respectively.

As for `O=C(N[C@H]1CC[C@H](CCN2CC[C@H]3CN(c4ccccc4)C[C@@H]3C2)CC1)c1cccc2ncccc12` (racemic) [Compound I-033], the Ki in experiment [1] was 170 nM; in experiment [2], 3.6 nM.

`Cc1ncccc1C(=O)N[C@H]1CC[C@H](CCN2CCc3sc(OCC(F)(F)F)nc3C2)CC1` [III-603]: the Ki in experiment [1] turned out to be 610 nM; in experiment [2], 0.44 nM.

For the compound `Cn1cc(CC(=O)N[C@H]2CC[C@H](CCN3CCc4ccc(OCC(F)(F)F)nc4CC3)OC2)cn1` [III-230], the Ki in experiment [1] amounted to 640 nM; in experiment [2] it was 0.99 nM.

Turning to `CC(=O)N[C@H]1CC[C@H](CCN2CCc3nc(OCC(C)(F)F)sc3CC2)CC1` [II-014], the Ki came out at 230 nM in experiment [1] and 0.45 nM in experiment [2].

Take `Cc1ncc(CC(=O)N[C@H]2CC[C@H](CCN3CCc4ccc(OC5CCOC5)nc4CC3)CC2)s1` (stereo partly drawn) [III-052]: the Ki is more than 1800 nM in experiment [1] and 1.1 nM in experiment [2].

In the case of `Cc1ncc(CC(=O)N[C@H]2CC[C@](F)(CCN3CCc4nc(OCC(F)(F)F)sc4CC3)CC2)o1` [III-262], the Ki in experiment [1] was found to be 560 nM; in experiment [2], 0.22 nM.

With `CN1Cc2c(C(=O)N[C@H]3CC[C@H](CCN4CCc5nc(OCC(F)(F)F)sc5CC4)CC3)cccc2C1=O` [II-047], the values for the Ki in experiment [1] and in experiment [2] were 280 nM and 0.022 nM, respectively.

For the compound `O=C(N[C@H]1CC[C@H](CCN2CCc3sc(N4CC5CC5C4)nc3C2)CC1)c1cccc2ncccc12` (stereo partly drawn) [Compound I-073], the Ki in experiment [1] was more than 1700 nM; in experiment [2], 0.08 nM.

As for `Cc1cc2c(C(=O)N[C@H]3CC[C@H](CCN4CCc5ccc(OCC(F)(F)F)nc5CC4)OC3)cccn2n1` [III-228], the Ki amounted to 330 nM in experiment [1] and 0.16 nM in experiment [2].

On to `Cn1cc2c(C(=O)N[C@H]3CC[C@H](CCN4CCc5ccc(OC6CC(F)(F)C6)nc5CC4)CC3)cccc2n1` [III-155], for which the figures for the Ki in experiment [1] and in experiment [2] were more than 1700 nM and 0.25 nM, respectively.

Take `Cc1nc(CC(=O)N[C@H]2CC[C@H](CCN3CCc4nc(OCC(F)(F)F)sc4CC3)OC2)no1` [III-180]: the results for the Ki in experiment [1] and in experiment [2] were 460 nM and 0.72 nM, respectively.

For the compound `CCCOc1nc2c(s1)CCN(CC[C@H]1CC[C@H](NC(=O)c3cccc4nn(C)cc34)CC1)C2` [III-544], the Ki is more than 1700 nM in experiment [1] and 0.55 nM in experiment [2].

As for `O=C(N[C@H]1CC[C@H](CCN2CCc3sc(Cc4ccccc4)nc3C2)CC1)c1cccc2ncccc12` [Compound I-014], the Ki in experiment [1] is more than 1700 nM; in experiment [2], 1.3 nM.

Regarding `CC(CF)Oc1nc2c(s1)CCN(CC[C@H]1CC[C@H](NC(=O)c3cccc4nn(C)cc34)CC1)CC2` (stereo partly drawn) [III-159], the Ki in experiment [1] was more than 1700 nM; in experiment [2], 0.91 nM.

With `Cn1cc(OCC(=O)N[C@H]2CC[C@H](CCN3CCc4nc(OCC(F)(F)F)sc4CC3)OC2)cn1` [III-175], the results for the Ki in experiment [1] and in experiment [2] were 650 nM and 0.68 nM, respectively.

Regarding `Cc1cnc(CC(=O)N[C@H]2CC[C@H](CCN3CCc4ccc(OCC(F)(F)F)nc4CC3)OC2)o1` [III-234], the Ki amounted to 460 nM in experiment [1] and 0.77 nM in experiment [2].

Consider `CCn1c(C(=O)N[C@H]2CC[C@H](CCN3CCc4sc(CCC(F)(F)F)nc4C3)CC2)cccc1=O` [III-704], for which the Ki in experiment [1] came out at 380 nM; in experiment [2], 0.51 nM.

On to `O=C1Cc2cccc(C(=O)N[C@H]3CC[C@H](CCN4CCc5nc(OCC(F)F)sc5CC4)CC3)c2N1` [III-280], for which the Ki is 500 nM in experiment [1] and 0.11 nM in experiment [2].

Consider `Cn1cc(OCC(=O)N[C@H]2CC[C@H](CCN3CCc4sc(OCC(C)(F)F)nc4C3)CC2)cn1` [III-573], for which the Ki in experiment [1] was determined as 350 nM; in experiment [2], 0.32 nM.

`O=C(NCCCCN1CCc2sc(OCC(F)(F)F)nc2C1)c1ccc2ccccc2c1` [Compound I-140]: the results for the Ki in experiment [1] and in experiment [2] were 1200 nM and 1.9 nM, respectively.

With `Cn1cc(CC(=O)N[C@H]2CC[C@H](CCN3CCc4sc(COC(F)(F)F)nc4C3)CC2)cn1` [III-622], the results for the Ki in experiment [1] and in experiment [2] were more than 1800 nM and 1.2 nM, respectively.

With `Cc1ncc(OCC(=O)N[C@H]2CC[C@H](CCN3CCc4nc(OCC(F)(F)F)sc4CC3)OC2)cn1` [III-165], the values for the Ki in experiment [1] and in experiment [2] were 670 nM and 0.81 nM, respectively.

In the case of `Cn1cc2c(C(=O)N[C@H]3CC[C@H](CCN4CCc5sc(CCC(F)(F)F)nc5C4)CC3)cccc2n1` [III-452], the figures for the Ki in experiment [1] and in experiment [2] were 1000 nM and 0.29 nM, respectively.

Regarding `CN1Cc2c(C(=O)N[C@H]3CC[C@H](CCN4CCc5sc(OCC(F)(F)F)nc5C4)CC3)cccc2C1=O` [III-610], the Ki in experiment [1] is 330 nM; in experiment [2], 0.077 nM.

Consider `Cc1ncc(CC(=O)N[C@H]2CC[C@H](CCN3CCc4sc(OCC(C)(F)F)nc4C3)CC2)o1` [III-451], for which the Ki in experiment [1] was determined as 650 nM; in experiment [2], 0.48 nM.

As to `Cn1cc2c(C(=O)N[C@H]3CC[C@H](CCN4CCc5sc(N6CC(F)(F)C6)nc5C4)CC3)cccc2n1` [III-439], the values for the Ki in experiment [1] and in experiment [2] were 500 nM and 0.29 nM, respectively.

`O=C(N[C@H]1CO[C@H](CCN2CCc3sc(OCC(F)(F)F)nc3C2)OC1)OCc1ccccc1` [III-659]: the Ki in experiment [1] was found to be 1500 nM; in experiment [2] it was 9.6 nM.

For the compound `CC(F)(F)COc1nc2c(s1)CCN(CC[C@H]1CC[C@H](NS(=O)(=O)c3cccc(F)c3)CC1)C2` [III-576], the figures for the Ki in experiment [1] and in experiment [2] were 79 nM and 0.44 nM, respectively.

Consider `Cn1cc2c(C(=O)N[C@H]3CC[C@H](CCN4CCc5nc(O[C@H]6C[C@H](F)C6)sc5CC4)CC3)cccc2n1` [III-158], for which the Ki in experiment [1] was more than 1700 nM; in experiment [2], 0.34 nM.

`Cn1cc(CC(=O)N[C@H]2CC[C@H](CCN3CCc4sc(OCC(F)F)nc4C3)CC2)cn1` [Compound I-108]: the values for the Ki in experiment [1] and in experiment [2] were 1400 nM and 1.5 nM, respectively.

On to `Cc1cnc(CC(=O)N[C@H]2CC[C@H](CCN3CCc4sc(CCC(F)(F)F)nc4C3)CC2)o1` [III-698], for which the Ki is 770 nM in experiment [1] and 0.52 nM in experiment [2].
